Reference: patent US20250353891A1 (MEDIMMUNE LIMITED, priority 2022, published 2025)
Starred links: 1 amine or outer side, 2 acyl side, 3 side chain; linkers in the order of their positions; H or OH if unused. Non-standard residues stand in square brackets, D forms with d. Residues, ends and D or L forms follow the SMILES beside them. Groups on a side chain read outwards from the residue. *: point of attachment. C20 diacid = O=C(O)CCCCCCCCCCCCCCCCCCC(=O)*; C18 diacid = O=C(O)CCCCCCCCCCCCCCCCC(=O)*; γGlu = O=C(O)[C@H](CCC(=O)[*:2])N[*:1]; αMeF = C[C@](N)(Cc1ccccc1)C(=O)O; AEEA = NCCOCCOCC(=O)O; Aib = CC(C)(N)C(=O)O

Experiments:
[1] = molecular target: human GLP-1 receptor (hGLP-1R) (Homo sapiens, UniProt P43220); assay: cAMP production (HTRF) in CHO cells expressing hGLP-1R; assay type: cell-based; design: expressed in transfected cells; details: for EC50: Table 6, peptides modified at position 17, cAMP in CHO hGLP-1R cells, geometric mean, read-out: hGLP-1R EC50; for % Relative Potency Ratio: Table 6, % GLP-1R activity relative to GLP-1 / % GlucR activity relative to glucagon
How it was run: (§1)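 Potency values represent EC50 from 4-parameter logistic curves of HTRF % Delta F signal. Receptor-expressing CHO cells (hGCGR 2×10^5 cells/mL, hGLP-1R 1×10^5 cells/mL) were exposed for 30 min at room temperature before two-step cAMP detection.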

[2] = molecular target: human glucagon receptor (hGCGR) (Homo sapiens, UniProt P47871); assay: cAMP production (HTRF) in CHO cells expressing hGCGR; assay type: cell-based; design: expressed in transfected cells; details: Table 6, peptides modified at position 17; cAMP in CHO hGCGR cells; geometric mean; read-out: hGluc-R EC50
How it was run: as §1

Chain of human glucagon receptor (hGCGR) (P47871 26-477): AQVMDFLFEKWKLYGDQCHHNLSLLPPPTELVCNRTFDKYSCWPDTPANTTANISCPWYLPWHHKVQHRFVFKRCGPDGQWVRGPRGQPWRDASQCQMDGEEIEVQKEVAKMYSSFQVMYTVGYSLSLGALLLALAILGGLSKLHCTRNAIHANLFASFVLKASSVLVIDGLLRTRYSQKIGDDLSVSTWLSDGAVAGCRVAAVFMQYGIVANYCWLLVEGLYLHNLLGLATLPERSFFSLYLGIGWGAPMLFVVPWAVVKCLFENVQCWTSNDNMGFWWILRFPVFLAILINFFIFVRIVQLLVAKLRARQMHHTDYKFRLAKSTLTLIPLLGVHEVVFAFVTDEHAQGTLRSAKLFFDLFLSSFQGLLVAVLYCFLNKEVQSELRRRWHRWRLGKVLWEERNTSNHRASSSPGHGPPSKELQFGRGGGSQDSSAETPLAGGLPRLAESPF
Chain of human GLP-1 receptor (hGLP-1R) (P43220 24-463): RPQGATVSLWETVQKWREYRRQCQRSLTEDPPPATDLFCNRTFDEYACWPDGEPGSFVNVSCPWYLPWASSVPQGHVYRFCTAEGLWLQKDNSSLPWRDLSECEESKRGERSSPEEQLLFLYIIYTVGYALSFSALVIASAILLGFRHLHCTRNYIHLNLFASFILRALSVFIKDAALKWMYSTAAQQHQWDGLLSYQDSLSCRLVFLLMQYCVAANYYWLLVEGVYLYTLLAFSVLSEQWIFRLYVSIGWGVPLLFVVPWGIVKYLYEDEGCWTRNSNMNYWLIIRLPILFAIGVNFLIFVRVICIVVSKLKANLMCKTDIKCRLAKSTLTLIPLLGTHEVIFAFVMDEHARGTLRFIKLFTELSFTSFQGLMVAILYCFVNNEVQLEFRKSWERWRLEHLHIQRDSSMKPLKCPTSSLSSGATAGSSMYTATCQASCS

Compound	EC50 [1] [nM]	% Relative Potency Ratio [1]	EC50 [2] [nM]
CC(C)C[C@H](NC(=O)[C@H](Cc1c[nH]c2ccccc12)NC(=O)[C@H](CCC(N)=O)NC(=O)[C@@H](NC(=O)[C@H](Cc1ccccc1)NC(=O)[C@H](CC(=O)O)NC(=O)[C@H](CCCNC(=N)N)NC(=O)[C@H](C)NC(=O)[C@H](CCCNC(=N)N)NC(=O)[C@H](CCCCNC(=O)COCCOCCNC(=O)COCCOCCNC(=O)CC[C@H](NC(=O)CCCCCCCCCCCCCCCCCCC(=O)O)C(=O)O)NC(=O)[C@@H](NC(=O)[C@H](CC(=O)O)NC(=O)[C@H](CC(C)C)NC(=O)[C@](C)(Cc1ccccc1)NC(=O)[C@H](CCCCN)NC(=O)[C@H](CO)NC(=O)[C@@H](NC(=O)[C@H](CC(=O)O)NC(=O)[C@H](CO)NC(=O)[C@@H](NC(=O)[C@H](Cc1ccccc1)NC(=O)[C@@H](NC(=O)CNC(=O)[C@H](CCC(N)=O)NC(=O)C(C)(C)NC(=O)[C@@H](N)Cc1c[nH]cn1)[C@@H](C)O)[C@@H](C)O)C(C)C)[C@@H](C)O)C(C)C)C(=O)N[C@@H](CC(C)C)C(=O)NC(C)(C)C(=O)N[C@H](C(=O)N[C@@H](CCC(=O)O)C(N)=O)[C@@H](C)O [Peptide 490] (H-H[Aib]QGTFTSDVSK[αMeF]LDTK([AEEA-AEEA-γGlu-C20 diacid])RARDFVQWLL[Aib]TE-NH2; N-terminus assumed)	0.069	11.4	0.396
CC(C)C[C@H](NC(=O)[C@H](Cc1c[nH]c2ccccc12)NC(=O)[C@H](CCCNC(=N)N)NC(=O)[C@@H](NC(=O)[C@H](Cc1ccccc1)NC(=O)[C@H](CC(=O)O)NC(=O)[C@H](CCCNC(=N)N)NC(=O)[C@H](C)NC(=O)[C@H](CCCNC(=N)N)NC(=O)[C@H](CCCCNC(=O)COCCOCCNC(=O)COCCOCCNC(=O)CC[C@H](NC(=O)CCCCCCCCCCCCCCCCCCC(=O)O)C(=O)O)NC(=O)[C@@H](NC(=O)[C@H](CC(=O)O)NC(=O)[C@H](CC(C)C)NC(=O)[C@](C)(Cc1ccccc1)NC(=O)[C@H](CCCCN)NC(=O)[C@H](CO)NC(=O)[C@@H](NC(=O)[C@H](CC(=O)O)NC(=O)[C@H](CO)NC(=O)[C@@H](NC(=O)[C@H](Cc1ccccc1)NC(=O)[C@@H](NC(=O)CNC(=O)[C@H](CCC(N)=O)NC(=O)C(C)(C)NC(=O)[C@@H](N)Cc1c[nH]cn1)[C@@H](C)O)[C@@H](C)O)C(C)C)[C@@H](C)O)C(C)C)C(=O)N[C@@H](CC(C)C)C(=O)NC(C)(C)C(=O)N[C@H](C(=O)N[C@@H](CCC(=O)O)C(=O)O)[C@@H](C)O [Peptide 492] (H-H[Aib]QGTFTSDVSK[αMeF]LDTK([AEEA-AEEA-γGlu-C20 diacid])RARDFVRWLL[Aib]TE-OH; N-terminus assumed)	0.212	3.5	0.374
CC(C)C[C@H](NC(=O)[C@H](Cc1c[nH]c2ccccc12)NC(=O)[C@H](CCCNC(=N)N)NC(=O)[C@@H](NC(=O)[C@H](Cc1ccccc1)NC(=O)[C@H](CC(=O)O)NC(=O)[C@H](CCC(N)=O)NC(=O)[C@H](C)NC(=O)[C@H](CCCNC(=N)N)NC(=O)[C@H](CCCCNC(=O)COCCOCCNC(=O)COCCOCCNC(=O)CC[C@H](NC(=O)CCCCCCCCCCCCCCCCC(=O)O)C(=O)O)NC(=O)[C@@H](NC(=O)[C@H](CC(=O)O)NC(=O)[C@H](CC(C)C)NC(=O)[C@](C)(Cc1ccccc1)NC(=O)[C@H](CCCCN)NC(=O)[C@H](CO)NC(=O)[C@@H](NC(=O)[C@H](CC(=O)O)NC(=O)[C@H](CO)NC(=O)[C@@H](NC(=O)[C@H](Cc1ccccc1)NC(=O)[C@@H](NC(=O)CNC(=O)[C@H](CCC(N)=O)NC(=O)C(C)(C)NC(=O)[C@@H](N)Cc1c[nH]cn1)[C@@H](C)O)[C@@H](C)O)C(C)C)[C@@H](C)O)C(C)C)C(=O)N[C@@H](CC(C)C)C(=O)N[C@@H](CCCNC(=N)N)C(=O)NC(C)(C)C(=O)N[C@@H](CCCCN)C(=O)O [Peptide 493] (H-H[Aib]QGTFTSDVSK[αMeF]LDTK([AEEA-AEEA-γGlu-C18 diacid])RAQDFVRWLLR[Aib]K-OH; N-terminus assumed)	0.0235	14.0	0.166

Continued, values first:

EC50 [1] [nM]	% Relative Potency Ratio [1]	EC50 [2] [nM]	Compound
0.0736	6.2	0.232	CC(C)C[C@H](NC(=O)[C@H](Cc1c[nH]c2ccccc12)NC(=O)[C@H](CCCNC(=N)N)NC(=O)[C@@H](NC(=O)[C@H](Cc1ccccc1)NC(=O)[C@H](CC(=O)O)NC(=O)[C@H](CCCNC(=N)N)NC(=O)[C@H](C)NC(=O)[C@H](CCCNC(=N)N)NC(=O)[C@H](CCCCNC(=O)COCCOCCNC(=O)COCCOCCNC(=O)CC[C@H](NC(=O)CCCCCCCCCCCCCCCCC(=O)O)C(=O)O)NC(=O)[C@@H](NC(=O)[C@H](CC(=O)O)NC(=O)[C@H](CC(C)C)NC(=O)[C@](C)(Cc1ccccc1)NC(=O)[C@H](CCCCN)NC(=O)[C@H](CO)NC(=O)[C@@H](NC(=O)[C@H](CC(=O)O)NC(=O)[C@H](CO)NC(=O)[C@@H](NC(=O)[C@H](Cc1ccccc1)NC(=O)[C@@H](NC(=O)CNC(=O)[C@H](CCC(N)=O)NC(=O)C(C)(C)NC(=O)[C@@H](N)Cc1c[nH]cn1)[C@@H](C)O)[C@@H](C)O)C(C)C)[C@@H](C)O)C(C)C)C(=O)N[C@@H](CC(C)C)C(=O)NC(C)(C)C(=O)N[C@H](C(=O)N[C@@H](CCC(=O)O)C(=O)O)[C@@H](C)O [Peptide 491] (H-H[Aib]QGTFTSDVSK[αMeF]LDTK([AEEA-AEEA-γGlu-C18 diacid])RARDFVRWLL[Aib]TE-OH; N-terminus assumed)
0.0987	4.3	0.212	CC(C)C[C@H](NC(=O)[C@H](Cc1c[nH]c2ccccc12)NC(=O)[C@H](CCCNC(=N)N)NC(=O)[C@@H](NC(=O)[C@H](Cc1ccccc1)NC(=O)[C@H](CC(=O)O)NC(=O)[C@H](CCC(N)=O)NC(=O)[C@H](C)NC(=O)[C@H](CCCNC(=N)N)NC(=O)[C@H](CCCCNC(=O)COCCOCCNC(=O)COCCOCCNC(=O)CC[C@H](NC(=O)CCCCCCCCCCCCCCCCCCC(=O)O)C(=O)O)NC(=O)[C@@H](NC(=O)[C@H](CC(=O)O)NC(=O)[C@H](CC(C)C)NC(=O)[C@](C)(Cc1ccccc1)NC(=O)[C@H](CCCCN)NC(=O)[C@H](CO)NC(=O)[C@@H](NC(=O)[C@H](CC(=O)O)NC(=O)[C@H](CO)NC(=O)[C@@H](NC(=O)[C@H](Cc1ccccc1)NC(=O)[C@@H](NC(=O)CNC(=O)[C@H](CCC(N)=O)NC(=O)C(C)(C)NC(=O)[C@@H](N)Cc1c[nH]cn1)[C@@H](C)O)[C@@H](C)O)C(C)C)[C@@H](C)O)C(C)C)C(=O)N[C@@H](CC(C)C)C(=O)N[C@@H](CCCNC(=N)N)C(=O)NC(C)(C)C(=O)N[C@@H](CCCCN)C(=O)O [Peptide 494]
